Measured values taken from patent publication US8911715B2, “L-menthyl-N-(2-hydroxyphenyl)carbamate” (Symrise AG, priority 2008, dated 2014).
Values after ≈ are worked out from the molar mass of the structure shown.

Legend:
[1] = tested on: Corynebacterium xerosis; experiment: MIC determination, series dilution test (microtiter plate) / agar dilution method; format: cell-based
Description: (§1) The evidence of the antimicrobial action against body perspiration odor bacteria of the substances synthesized according to the examples was implemented with the aid of the agar dilution method according to DIN 58 940/ICS and DIN 58 944/ICS. Petri dishes of 5.5 cm in diameter were filled with 8.7 ml freshly produced Mueller-Hinton-agar or Wilkins-Chalgren-agar bouillon kept liquid at 50° C., supplemented with 10 g agar-agar/liter) to which the various concentrations of the thinned samples were added in 3.3% by volume=0.3 ml.
(§2) 2.6 ml of the 3.3% samples were diluted with ethanol (96%). By continuous 2:1 dilution with ethanol (96%) the further test concentrations of the respective series of dilution, which were placed in the form of geometric rows, were produced.
(§3) By further dilution with the test agar (0.3 ml sample or corresponding dilutions+8.7 ml agar), 30 times lower end concentrations were achieved (corresponds to a starting concentration of 1,100 ppm in each case). The concentrations disclosed below relate to the pure substance and are converted into ppm. […]
(§4) All the test germ suspensions were diluted again with sterile bouillon 1:10 and the germ count thereof determined in the surface method per spiralometer (results: see Table 1).
(§5) The lowest active ingredient concentration was regarded as the MIC (minimal inhibition concentration), at which no growth is macroscopically present. Minimal, hardly visible growth or a few small individual colonies were evaluated as inhibition.
(§6) The minimum inhibition concentration (MIC) of the compound according to the invention, was determined against various cosmetically relevant germs in the series dilution test (H. Brandis, G. Pulverer: Lehrbuch der Medizinischen Mikrobiologie, 6th revised edition, Gustav Fischer Verlag Stuttgart, 1988; page 200 et seq.). The test was transferred to the microtiter plate format and the concentration was determined as the MIC value, in which after 16 hours of incubation, at the wavelength of 620 nm, no significant rise in the clouding was observed relative to the controls.

[2] = tested on: Staphylococcus aureus; experiment: as above; format: cell-based; conditions: ATCC6538; Staphylococcus aureus ATCC 6538; 16 hours incubation, clouding at 620 nm
Description: as §1, §2, §3, §4, §5, §6

[3] = tested on: Aspergillus niger; experiment: as above; format: cell-based
Description: as §1
2.6 ml of the 3.3% samples were diluted with ethanol (96%). […]
as §4, §5
The minimum inhibition concentration (MIC) of the compound according to the invention, was determined against various cosmetically relevant germs in the series dilution test (H. Brandis, G. Pulverer: Lehrbuch der Medizinischen Mikrobiologie, 6th revised edition, Gustav Fischer Verlag Stuttgart, 1988; page 200 et seq.). […]

[4] = ABTS assay, cell-free in vitro test of antioxidant capacity; format: biochemical; design: Mean antioxidant capacity (AOX): unit not given here; conditions: for IC50: ABTS decoloration at 734 nm, read-out: IC50 (antioxidant concentration in which 50% of the cationic radicals are reduced); for IC50 / Mean antioxidant capacity (AOX): mean of two independent tests
Source text: In order to check to what extent L-menthyl-N-(2-hydroxyphenyl)carbamate also has antioxidant potential, the substance was investigated with the aid of the ABTS assay.
The ABTS assay is a cell-free in vitro test for evaluating the antioxidant capacity (literature: Re R, Pellegrini N, Proteggente A, Pannala A, Yang M, Rice-Evans C. 1999. “Antioxidant activity applying an improved ABTS radical cation decolorization assay”; Free Radic. Bio. Med. 26: 1231-7). The assay uses the inherent color of a solution produced with the cationic radical 2,2′-azinobis(3-ethylbenzothiazoline 6-sulfonic acid) (ABTS+) and potassium persulfate, which solution is decolored by the addition of antioxidants (reduction of the cationic radical). This decoloration can be measured photometrically at 734 nm.
The test is carried out in 96-well microtiter plates. The antioxidant capacity is expressed in IC50 values (antioxidant concentration in which 50% of the cationic radicals are reduced). All the ABTS test results result from two independent tests and are shown as mean values with associated mean value deviation.

SMILES	MIC ([1]; ATCC7711, Corynebacterium xerosis ATCC 7711, 16 hours incubation, clouding at 620 nm) [µg/mL]	inhibition of the growth (in words) ([1]; gram-positive bacteria such as corynebacterium xerosis, very small concentrations)	MIC [2] [µg/mL]	MIC ([3]; ATCC16404, Aspergillus niger ATCC 16404, 16 hours incubation, clouding at 620 nm) [µg/mL]	activity relative to mould fungi (in words) ([3]; mould fungi such as Aspergillus niger)	IC50 [4] [µM]	antioxidant capacity compared with reference alpha-tocopherol (in words) ([4]; ABTS investigations)	Mean antioxidant capacity (AOX) ([4]; concentration 0.001 mM)	Mean antioxidant capacity (AOX) ([4]; concentration 0.0025 mM)	Mean antioxidant capacity (AOX) ([4]; concentration 0.005 mM)	Mean antioxidant capacity (AOX) ([4]; concentration 0.025 mM)	Mean antioxidant capacity (AOX) ([4]; concentration 0.05 mM)
CC(C)[C@@H]1CC[C@@H](C)C[C@H]1OC(=O)Nc1ccccc1O [L-menthyl-N-(2-hydroxyphenyl)carbamate]	8 (≈ 27.5 µM)	clear inhibition of the growth	8 (≈ 27.5 µM)	> 1000	inactive	19	comparable with the antioxidant capacity of the reference substance alpha-tocopherol	3.58	8.84	17.50	63.15	96.56
Cc1c(C)c2c(c(C)c1O)CC[C@@](C)(CCC[C@H](C)CCC[C@H](C)CCCC(C)C)O2 [alpha-tocopherol, reference compound]	–	–	–	–	–	25	–	0.56	4.16	10.83	51.38	94.88
